Test results reported in patent US6737383B1, “Herbicidal oxadiazolidines” (priority 1999, dated 2004).

What was measured:
bedstraw = assay: Test B pre/postemergence bedstraw; assay type: in vivo, Galium aparine
In short: (§1)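 Herbicidal effect was estimated by eye on a ten-point control scale after plants spent twelve to sixteen days in a greenhouse following soil or foliar treatment. Foliar sprays targeted plants at one to four leaves; all doses were formulated in a non-phytotoxic solvent with surfactant.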

blackgrass = assay: Test B pre/postemergence blackgrass; assay type: in vivo, Alopecurus myosuroides
In short: as §1

giant foxtail = assay: Test B pre/postemergence giant foxtail; assay type: in vivo, Setaria faberii
In short: as §1

morningglory = assay: Test B pre/postemergence morningglory; assay type: in vivo, Ipomoea hederacea
In short: as §1

pigweed = assay: Test B pre/postemergence pigweed; assay type: in vivo, Amaranthus retroflexus
In short: as §1

rape = assay: Test B pre/postemergence rape; assay type: in vivo, Brassica napus
In short: as §1

soybean = assay: Test B pre/postemergence soybean; assay type: in vivo, Glycine max
In short: as §1

sugar beet = assay: Test B pre/postemergence sugar beet; assay type: in vivo, Beta vulgaris
In short: as §1

velvetleaf = assay: Test B pre/postemergence velvetleaf; assay type: in vivo, Abutilon theophrasti
In short: as §1

wheat = assay: Test B pre/postemergence wheat; assay type: in vivo, Triticum aestivum
In short: as §1

wild oat = assay: Test B pre/postemergence wild oat; assay type: in vivo, Avena fatua
In short: as §1

purple nutsedge = assay: Test B pre/postemergence purple nutsedge; assay type: in vivo, Cyperus rotundus
In short: as §1

rice = assay: Test B flood test rice; assay type: in vivo, Oryza sativa
In short: (§2)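 Each value is a visual injury score relative to controls, with 10 meaning complete control and 0 no effect. Evaluation took place twelve to sixteen days after the 2-leaf-stage plants were treated and kept in the greenhouse.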

smallflower flatsedge = assay: Test B flood test smallflower flatsedge; assay type: in vivo, Cyperus difformis
In short: as §2

duck salad = assay: Test B flood test duck salad; assay type: in vivo, Heteranthera limosa
In short: as §2

bamyardgrass = assay: Test B flood test barnyardgrass; assay type: in vivo, Echinochloa crus-galli
In short: as §2

[1] = Postemergence, Rate 31 g/ha, visual rating, scale 0 to 10 (0 no effect, 10 complete control)
[2] = Preemergence, Rate 31 g/ha, visual rating, scale 0 to 10 (0 no effect, 10 complete control)
[3] = Preemergence, Rate 62 g/ha, scale of 0 to 10 where 0 is no effect and 10 is complete control
[4] = Rate 16 g/ha, Postemergence, scale 0 to 10, 0 no effect, 10 complete control
[5] = Rate 16 g/ha, Preemergence, scale 0 to 10, 0 no effect, 10 complete control
[6] = Rate 62 g/ha, Postemergence, scale 0 to 10 (0 no effect, 10 complete control)
[7] = Rate 125 g/ha, Postemergence, scale of 0 to 10 where 0 is no effect and 10 is complete control
[8] = Rate 125 g/ha, Preemergence, scale of 0 to 10 where 0 is no effect and 10 is complete control
[9] = Rate 16 g/ha, head printed Pre-emergence (flood test species), scale 0 to 10, 0 no effect, 10 complete control
[10] = Rate 31 g/ha, Pre-emergence section (flood test species), scale 0 to 10
[11] = Rate 62 g/ha, headed Pre-emergence (flood test species), scale 0 to 10 (0 no effect, 10 complete control)
[12] = Rate 125 g/ha, Pre-emergence, flood test species, scale 0 to 10 where 0 is no effect and 10 is complete control
[13] = Rate 250 g/ha, Pre-emergence, flood-test species, scale 0 to 10, 0 is no effect, 10 is complete control
[14] = Rate 500 g/ha, Pre-emergence, flood test species, scale 0 to 10 (0 no effect, 10 complete control)

For `CCCCCn1c(=O)on(C(=O)N(c2ccc(F)cc2)C(C)C)c1=O` [Compound 290], which “Bedstraw plant response rating” value (bedstraw; [1]) is on record?
Its value is 0.

And the “Bedstraw plant response rating” value (bedstraw; [2])?
The value was 0.

And the “Bedstraw plant response rating” value (bedstraw; [3])?
The value was 0.

And the “Bedstraw plant response rating” value (bedstraw; [4])?
The value was 0.

What about the “Bedstraw plant response rating” value (bedstraw; [5]) of the same compound?
The value was 0.

What about the “Bedstraw plant response rating” value (bedstraw; [6]) of the same compound?
Its value is 0.

And the “Bedstraw plant response rating” value (bedstraw; [7])?
Its value is 0.

And the “Bedstraw plant response rating” value (bedstraw; [8])?
Its value is 3.

And the “Blackgrass plant response rating” value (blackgrass; [1])?
Its value is 0.

And the “Blackgrass plant response rating” value (blackgrass; [2])?
Its value is 0.

What about the “Blackgrass plant response rating” value (blackgrass; [3]) of the same compound?
The value was 2.

What about the “Blackgrass plant response rating” value (blackgrass; [4]) of the same compound?
Its value is 0.

And the “Blackgrass plant response rating” value (blackgrass; [5])?
Its value is 0.

And the “Blackgrass plant response rating” value (blackgrass; [6])?
Its value is 0.

What about the “Blackgrass plant response rating” value (blackgrass; [7]) of the same compound?
The value was 0.

And the “Blackgrass plant response rating” value (blackgrass; [8])?
Its value is 2.

And the “Giant foxtail plant response rating” value (giant foxtail; [1])?
The value was 0.

And the “Giant foxtail plant response rating” value (giant foxtail; [2])?
Its value is 2.

What about the “Giant foxtail plant response rating” value (giant foxtail; [3]) of the same compound?
The value was 8.

And the “Giant foxtail plant response rating” value (giant foxtail; [4])?
Its value is 0.

What about the “Giant foxtail plant response rating” value (giant foxtail; [5]) of the same compound?
Its value is 2.

And the “Giant foxtail plant response rating” value (giant foxtail; [6])?
Its value is 0.

And the “Giant foxtail plant response rating” value (giant foxtail; [7])?
Its value is 0.

And the “Giant foxtail plant response rating” value (giant foxtail; [8])?
The value was 9.

And the “Morningglory plant response rating” value (morningglory; [1])?
Its value is 4.

And the “Morningglory plant response rating” value (morningglory; [2])?
The value was 0.

What about the “Morningglory plant response rating” value (morningglory; [3]) of the same compound?
The value was 0.

What about the “Morningglory plant response rating” value (morningglory; [4]) of the same compound?
Its value is 3.

And the “Morningglory plant response rating” value (morningglory; [5])?
The value was 0.

And the “Morningglory plant response rating” value (morningglory; [6])?
Its value is 4.

What about the “Morningglory plant response rating” value (morningglory; [7]) of the same compound?
The value was 6.

And the “Morningglory plant response rating” value (morningglory; [8])?
The value was 0.

What about the “Redroot pigweed plant response rating” value (pigweed; [1]) of the same compound?
The value was 0.

What about the “Redroot pigweed plant response rating” value (pigweed; [2]) of the same compound?
Its value is 0.

And the “Redroot pigweed plant response rating” value (pigweed; [3])?
Its value is 2.

And the “Redroot pigweed plant response rating” value (pigweed; [4])?
Its value is 0.

What about the “Redroot pigweed plant response rating” value (pigweed; [5]) of the same compound?
The value was 0.

And the “Redroot pigweed plant response rating” value (pigweed; [6])?
The value was 0.

What about the “Redroot pigweed plant response rating” value (pigweed; [7]) of the same compound?
The value was 0.

And the “Redroot pigweed plant response rating” value (pigweed; [8])?
Its value is 7.

What about the “Rape plant response rating” value (rape; [1]) of the same compound?
The value was 0.

And the “Rape plant response rating” value (rape; [2])?
Its value is 0.

And the “Rape plant response rating” value (rape; [3])?
Its value is 0.

What about the “Rape plant response rating” value (rape; [4]) of the same compound?
Its value is 0.

What about the “Rape plant response rating” value (rape; [5]) of the same compound?
The value was 0.

And the “Rape plant response rating” value (rape; [6])?
The value was 0.

What about the “Rape plant response rating” value (rape; [7]) of the same compound?
Its value is 0.

What about the “Rape plant response rating” value (rape; [8]) of the same compound?
The value was 0.

What about the “Soybean plant response rating” value (soybean; [1]) of the same compound?
Its value is 1.

What about the “Soybean plant response rating” value (soybean; [2]) of the same compound?
The value was 0.

And the “Soybean plant response rating” value (soybean; [3])?
Its value is 0.

What about the “Soybean plant response rating” value (soybean; [4]) of the same compound?
Its value is 1.

And the “Soybean plant response rating” value (soybean; [5])?
Its value is 0.

And the “Soybean plant response rating” value (soybean; [6])?
The value was 2.

And the “Soybean plant response rating” value (soybean; [7])?
The value was 2.

And the “Soybean plant response rating” value (soybean; [8])?
Its value is 0.

What about the “Sugarbeets plant response rating” value (sugar beet; [1]) of the same compound?
The value was 0.

What about the “Sugarbeets plant response rating” value (sugar beet; [2]) of the same compound?
Its value is 0.

And the “Sugarbeets plant response rating” value (sugar beet; [3])?
Its value is 2.

What about the “Sugarbeets plant response rating” value (sugar beet; [4]) of the same compound?
Its value is 0.

And the “Sugarbeets plant response rating” value (sugar beet; [5])?
The value was 0.

What about the “Sugarbeets plant response rating” value (sugar beet; [6]) of the same compound?
Its value is 0.

What about the “Sugarbeets plant response rating” value (sugar beet; [7]) of the same compound?
Its value is 0.

What about the “Sugarbeets plant response rating” value (sugar beet; [8]) of the same compound?
The value was 5.

What about the “Velvetleaf plant response rating” value (velvetleaf; [1]) of the same compound?
The value was 0.

What about the “Velvetleaf plant response rating” value (velvetleaf; [2]) of the same compound?
Its value is 0.

What about the “Velvetleaf plant response rating” value (velvetleaf; [3]) of the same compound?
Its value is 0.

What about the “Velvetleaf plant response rating” value (velvetleaf; [4]) of the same compound?
The value was 0.

What about the “Velvetleaf plant response rating” value (velvetleaf; [5]) of the same compound?
The value was 0.

And the “Velvetleaf plant response rating” value (velvetleaf; [6])?
The value was 0.

What about the “Velvetleaf plant response rating” value (velvetleaf; [7]) of the same compound?
Its value is 0.

And the “Velvetleaf plant response rating” value (velvetleaf; [8])?
The value was 0.

What about the “Wheat plant response rating” value (wheat; [1]) of the same compound?
Its value is 0.

And the “Wheat plant response rating” value (wheat; [2])?
The value was 0.

What about the “Wheat plant response rating” value (wheat; [3]) of the same compound?
Its value is 0.

What about the “Wheat plant response rating” value (wheat; [4]) of the same compound?
Its value is 0.

And the “Wheat plant response rating” value (wheat; [5])?
The value was 0.

And the “Wheat plant response rating” value (wheat; [6])?
The value was 0.

And the “Wheat plant response rating” value (wheat; [7])?
Its value is 0.

And the “Wheat plant response rating” value (wheat; [8])?
The value was 0.

What about the “Wild oats plant response rating” value (wild oat; [1]) of the same compound?
The value was 0.

And the “Wild oats plant response rating” value (wild oat; [2])?
The value was 0.

And the “Wild oats plant response rating” value (wild oat; [3])?
The value was 0.

What about the “Wild oats plant response rating” value (wild oat; [4]) of the same compound?
Its value is 0.

And the “Wild oats plant response rating” value (wild oat; [5])?
Its value is 0.

What about the “Wild oats plant response rating” value (wild oat; [6]) of the same compound?
Its value is 0.

What about the “Wild oats plant response rating” value (wild oat; [7]) of the same compound?
The value was 0.

What about the “Nutsedge plant response rating” value (purple nutsedge; [1]) of the same compound?
The value was 0.

What about the “Nutsedge plant response rating” value (purple nutsedge; [2]) of the same compound?
The value was 0.

And the “Nutsedge plant response rating” value (purple nutsedge; [3])?
Its value is 0.

What about the “Nutsedge plant response rating” value (purple nutsedge; [4]) of the same compound?
Its value is 0.

And the “Nutsedge plant response rating” value (purple nutsedge; [5])?
The value was 0.

What about the “Nutsedge plant response rating” value (purple nutsedge; [6]) of the same compound?
The value was 0.

And the “Nutsedge plant response rating” value (purple nutsedge; [7])?
Its value is 0.

What about the “Rice plant response rating” value (rice; [9]) of the same compound?
The value was 0.

And the “Rice plant response rating” value (rice; [10])?
Its value is 0.

What about the “Rice plant response rating” value (rice; [11]) of the same compound?
The value was 0.

And the “Rice plant response rating” value (rice; [12])?
The value was 0.

And the “Rice plant response rating” value (rice; [13])?
The value was 0.

What about the “Rice plant response rating” value (rice; [14]) of the same compound?
The value was 0.

And the “S. Flatsedge plant response rating” value (smallflower flatsedge; [9])?
The value was 0.

And the “S. Flatsedge plant response rating” value (smallflower flatsedge; [10])?
Its value is 0.

What about the “S. Flatsedge plant response rating” value (smallflower flatsedge; [11]) of the same compound?
Its value is 0.

What about the “S. Flatsedge plant response rating” value (smallflower flatsedge; [12]) of the same compound?
The value was 2.

And the “S. Flatsedge plant response rating” value (smallflower flatsedge; [13])?
The value was 0.

What about the “S. Flatsedge plant response rating” value (smallflower flatsedge; [14]) of the same compound?
The value was 0.

What about the “Ducksalad plant response rating” value (duck salad; [9]) of the same compound?
Its value is 0.

And the “Ducksalad plant response rating” value (duck salad; [10])?
Its value is 0.

What about the “Ducksalad plant response rating” value (duck salad; [11]) of the same compound?
The value was 0.

What about the “Ducksalad plant response rating” value (duck salad; [12]) of the same compound?
Its value is 0.

What about the “Ducksalad plant response rating” value (duck salad; [13]) of the same compound?
Its value is 0.

And the “Ducksalad plant response rating” value (duck salad; [14])?
The value was 0.

And the “Barnyardgrass plant response rating” value (bamyardgrass; [9])?
The value was 0.

What about the “Barnyardgrass plant response rating” value (bamyardgrass; [10]) of the same compound?
The value was 6.

What about the “Barnyardgrass plant response rating” value (bamyardgrass; [11]) of the same compound?
The value was 3.

What about the “Barnyardgrass plant response rating” value (bamyardgrass; [12]) of the same compound?
Its value is 4.

What about the “Barnyardgrass plant response rating” value (bamyardgrass; [13]) of the same compound?
Its value is 4.

What about the “Barnyardgrass plant response rating” value (bamyardgrass; [14]) of the same compound?
The value was 5.
